The text below walks through data of EPA's ToxValDB 9.5 (doi:10.2903/j.efsa.2010.1526).

The NOAEL is the highest dose or exposure tested at which no adverse effect was seen.

Converted amounts (≈) assume the structure as drawn. A value given as a limit tells only on which side of the number the result lay.

One series deals with Canidae. To be noted: chronic; duration: 1 years; oral; Dog Other; clinical chemistry.
The subject of the next series is Hypoaspis aculeifer. To be noted: chronic/long-term; duration: 14 days.
A further series has as its system Tagia sp. To be noted: acute; duration: 14 days; mortality.
The subject of a further series is Apis mellifera. As to conditions: acute; duration: 48 hours; oral; unspecified; mortality.
The subject of a further series is Oncorhynchus mykiss. To be noted: acute; duration: 96 hours; mortality.
The next series has as its system Bibionidae. To be noted: chronic/long-term; duration: 17 days.
The subject of another series is Rattus norvegicus. As to conditions: oral.

`C=CCOC(Cn1ccnc1)c1ccc(Cl)cc1Cl` (stereo not drawn) [Imazalil]: the LD50 in the series with Bird (acute, oral, unspecified, mortality) was 510 mg/kg-day; in the series on Apis mellifera, greater than 35.1 µg/piece; with Rattus norvegicus (acute, mortality), 227 mg/kg-day. Further, the NOEC turned out to be 24 mg/kg-day with Bird (chronic/long-term), 107 mg/kg in the series on Hypoaspis aculeifer and 0.181 mg/L with Bibionidae. The LC50 in the series with Bird (short-term, oral, feed, mortality) was greater than 516 mg/kg-day; with Tagia sp. it was 541 mg/kg; with Oncorhynchus mykiss, 1.48 µg/mL (≈ 4.98 µM). Further, the NOAEL with Canidae is 2.5 mg/kg-day; with Oryctolagus sp. (developmental, development), 5 mg/kg-day; in the series on Rattus norvegicus (chronic, duration: 6 months, clinical chemistry), 5 mg/kg-day. Moreover, the NOEL with Oryctolagus sp. (reproduction developmental, reproduction) came out at 20 mg/kg-day.
